Measured values published in patent US20240409669A1, “Neutralizing Trivalent Protein-DNA Molecules (TRI-PDBODY) for SARS-COV-2 Infection Treatment” (priority 2021, published 2024).

Molecular target: RBD of spike protein binding with ACE2 protein (Severe acute respiratory syndrome coronavirus 2, UniProt P0DTC2)

Bovine serum albumin [BSA]
Competitive inhibition of ACE2 binding with RBD of spike: non-competitive binding signal
